{"source": "patent US10233209B2", "about": "“Inhibitors of the farnesoid x receptor and uses in medicine” (The United States of America, as represented by the …, priority 2013, dated 2019)", "key": {"[1]": {"test_system": "HFD-treated C57BL/6N mice", "test": "Gly-MCA in mice fed a high-fat diet (prevention of obesity, insulin resistance, NAFLD)", "type": "in vivo, mouse", "description": "(§1) High-fat diet (HFD) (60% kcal consisting of fat) was purchased from Bioserv. […] Fxr^fl/fl and Fxr^ΔIE (Kim et al., J. Lipid Res. 48:2664-2672, 2007) mice were backcrossed with C57BL/6N mice for over 10 generations. For the antibiotic (the combination of bacitracin, neomycin, and streptomycin) study, male C57BL/6N mice from 6 weeks of age were fed a high-fat diet (“HFD) and administered 0.1% (w/v) of each compound (the combination of bacitracin, neomycin, and streptomycin) in the drinking water. […] For TβMCA in vivo, male C57BL/6N mice from 6 weeks of age were fed a HFD and treated with the antibiotics (0.1% of each compound of bacitracin, neomycin, and streptomycin combination) for 3 days. Vehicle (saline), TCA (400 mg/kg body weight, dissolved in saline) or a combination of TCA and TβMCA (400 mg/kg body weight of each compound, dissolved in saline) were orally administered to the mice and followed by a second dose 12 h later. The mice were killed 2 h later for tissue collection. For the Gly-MCA study, Gly-MCA was custom synthesized. Bacon-flavored dough pills were produced as described (Walker et al., Toxicol. Appl. Pharmacol. 260:65-69, 2012) for oral administration of Gly-MCA (0.25 mg Gly-MCA/pill, dose of 10 mg/kg). Mice were trained to eat the dough pills prior to the study. For the prevention of obesity, insulin resistance and NAFLD, male wild-type (WT) C57BL/6N mice, 6- to 8-weeks-old, were fed a high-fat diet (Bio-Serv, Frenchtown, N.J.; 60 kcal % fat) from the age of 6 weeks and were orally administered with vehicle (control pills) or Gly-MCA (0.25 mg/pill/day, dose 10 mg/kg). C57BL/6N mice fed a high-fat diet for 12 weeks were administered (0.25 mg Gly-MCA/pill, dose of 5 mg/kg). Leptin-deficient db/db mice, 6- to 8-weeks-old, fed a chow diet, were administered Gly-MCA (0.25 mg/pill/day, 10 mg/kg). Mice were housed individually in their home cages. Cumulative food intake and TEEbal were measured for 1 week in vehicle and Gly-MCA-treated mice from 6 to 7 weeks of HFD. TEEbal was measured as previously described (Ravussin et al., Int. J. Obesity 37:399-403, 2013).\nThe mucosa of intestine was gently scraped and liver was taken and both were flash frozen in liquid nitrogen and stored at −80° C. until RNA was prepared. RNA was extracted from frozen intestine and liver using TRIzol reagent (Invitrogen, Carlsbad, Calif.). cDNA was synthesized from 1 μg total RNA using Superscript II reverse transcriptase (Invitrogen, Carlsbad, Calif.). qPCR primers were designed with qPrimerDepot. Measured mRNA levels were normalized to those of 18S ribosomal RNA and expressed as fold change relative to those of control group.\nLipidomics analysis: For serum lipidomics analysis 25 μl serum were extracted by 4-fold cold chloroform:methanol (2:1) solution containing 2 μM LPC (17:0), PC (17:0), SM (17:0) and CER (17:0) (Avanti Polar Lipids, Alabaster, Ala.) as internal standards. The samples were vortexed for 30 s and then allowed to stand for 5 min at room temperature. The mixture was centrifuged at 13,000 rpm for 5 min and then the lower organic phase was collected and evaporated at room temperature under vacuum. The residue was dissolved in chloroform:methanol (1:1), followed by diluting with isopropanol:acetonitrile:H2O (2:1:1) containing 2 μM PC (17:0) prior to UPLC-MS analysis. For tissue lipidomics analysis, about 50 mg of accurately weighted tissues were homogenized with 700 μL methanol: H2O (4:3) solution and then extracted using 800 μL chloroform containing 2 μM LPC (17:0), SM (17:0) and CER (17:0) as internal standards. The homogenate was incubated at 37° C. for 20 min followed by centrifuged for 20 min at 13,000 rpm. The lower organic phase was transferred to a new tube and dried under vacuum. The residue was suspended with 100 chloroform:methanol (1:1) solution and then diluted with isopropanol:acetonitrile:H2O (2:1:1) solution containing 2 μM PC (17:0) before injection. […]"}, "[2]": {"test": "liver toxicity 24 h after Gly-MCA dosing (ALT, AST)", "type": "in vivo, mouse", "conditions": "1, 5, 50 mg/kg; after 24 h; vs vehicle", "experimental": "Mice were dosed with vehicle or Gly-MCA at 1 mg/kg, 5 mg/kg, and 50 mg/kg. After 24 h, […] (ALT) and […] (AST) levels were determined and the results shown in FIG. 37."}, "[3]": {"test": "Gly-MCA incubation with fecal extract (hydrolysis by gut bacteria)", "type": "in vitro ADME, mouse", "conditions": "50 μM Gly-MCA; 0.1 mg/mL fecal extract; TβMCA positive control", "experimental": "Fecal proteins were prepared from the fecal sample (0.5 g) in pH 7.4 PBS (5.0 ml) using sonication. Incubation was carried out in 3 mM sodium acetate buffer, pH 5.2, containing 0.1 mg/ml fecal protein and 50 μM Gly-MCA or T-β-MCA in a final volume of […]. After a 20-min incubation at 37° C., the samples were plunged into dry ice to stop the reaction. 100 of μL methanol was directly added to the […] reaction mixture. After centrifuging at 14,000 g for 20 min, […] of the supernatant was transferred to an autosampler vial subjected to analysis by a UPLC system coupled with a XEVO triple quadrupole tandem mass spectrometer (Waters Corp., Milford, Mass.).\nFecal extracts were prepared as described above. Gly-MCA (50 μM) was incubated with fecal extract (0.1 mg/mL). The negative control was fecal extract alone. The positive control was fecal extract (0.1 mg/mL) and TβMCA acid (50 μM)."}, "db/db mice": {"test_system": "db/db mice", "test": "Gly-MCA in leptin receptor-deficient (db/db) mice", "type": "in vivo, mouse", "description": "as §1"}, "HFD-induced obese mice": {"test_system": "HFD-induced obese mice", "test": "Gly-MCA in C57BL/6N mice made obese by 12 weeks of high-fat diet", "type": "in vivo, mouse", "conditions": "5 mg/kg", "description": "as §1"}, "[4]": {"test": "Gly-MCA in mouse ileum after oral gavage", "type": "in vivo", "conditions": "oral gavage 0, 1, 5, 50 mg/kg in corn oil", "experimental": "Gly-MCA was given to mice via oral gavage at dosages of 0, 1, 5, and 50 mg/kg of Gly-MCA, with the Gly-MCA dosed in corn oil. Gly-MCA was detected using ultra performance liquid chromatography-electrospray ionization-quadrupole time-of-flight mass spectrometry (UPLC-ESI-QTOFMS)."}}, "note": "Entries after “also recorded” stand apart in the source; their conditions may differ."}
{"smiles": "C[C@H](CCC(=O)NCC(=O)O)[C@H]1CC[C@H]2[C@@H]3[C@@H](O)[C@@H](O)[C@@H]4C[C@H](O)CC[C@]4(C)[C@H]3CC[C@]12C", "note": "[Gly-MCA, glycine-β-muricholic acid]", "values": [{"measurement": "Gly-MCA levels in the feces", "setting": "[1]; Gly-MCA treatment for 9 weeks", "result": "markedly increased"}, {"measurement": "Gly-MCA levels in the ileum", "setting": "[1]; Gly-MCA treatment for 9 weeks", "result": "markedly increased"}, {"measurement": "liver weights", "setting": "[1]; HFD", "result": "decreased"}, {"measurement": "hepatic lipid droplets (liver histology)", "setting": "[1]; HFD 7 weeks", "result": "marked reduction in hepatic lipid droplets"}, {"measurement": "Shp and Fgf15 mRNAs in the ileum", "setting": "[1]; HFD 9 weeks", "result": "decreased"}, {"measurement": "expression of Shp mRNA in the liver", "setting": "[1]; HFD 9 weeks", "result": "similar"}, {"measurement": "intestinal mRNAs of ceramide de novo synthesis-related genes (Sptic3, Cers4, Degs1, Smpd3)", "setting": "[1]; HFD 9 weeks", "result": "significantly lower"}, {"measurement": "serum ALT levels", "setting": "[1]; HFD 9 weeks", "result": "significantly decreased"}, {"measurement": "serum AST levels", "setting": "[1]; HFD 9 weeks", "result": "significantly decreased"}, {"measurement": "serum triglyceride levels", "setting": "[1]; HFD 9 weeks", "result": "remained similar"}, {"measurement": "body weight gain", "setting": "[1]; HFD, 10 mg/kg oral, after one week of treatment", "result": "reduced body weight gain"}, {"measurement": "ITT: insulin sensitivity", "setting": "[1]; HFD, 6 to 7 weeks", "result": "significantly increased"}, {"measurement": "energy expenditure (TEEbal)", "setting": "[1]; HFD, 6 to 7 weeks", "result": "increased the energy expenditure significantly"}, {"measurement": "food intake", "setting": "[1]; HFD, 6 to 7 weeks", "result": "comparable"}, {"measurement": "absolute fat mass (NMR)", "setting": "[1]; HFD, after 7 weeks of treatment", "result": "significantly decreased"}, {"measurement": "hepatic triglyceride contents decreased to", "setting": "[1]; HFD, relative to vehicle", "result": "approximately 51%"}, {"measurement": "GTT: blood glucose levels after glucose loading", "setting": "[1]; after 6 weeks of HFD", "result": "significantly reduced blood glucose levels"}, {"measurement": "liver toxicity (serum ALT and AST levels)", "setting": "[2]", "result": "do not develop significant liver toxicity; also recorded: did not exhibit significant liver toxicity"}, {"measurement": "stability: hydrolysis to β-MCA on incubation with fecal extract", "setting": "[3]", "result": "stable in the intestine"}, {"measurement": "absolute fat mass (NMR)", "setting": "db/db mice; 6 weeks", "result": "significantly decreased"}, {"measurement": "hepatic lipid droplets (liver histology)", "setting": "db/db mice; 6 weeks", "result": "significant decrease in hepatic lipid droplets"}, {"measurement": "liver TG contents", "setting": "db/db mice; 6 weeks", "result": "dramatically improved"}, {"measurement": "liver weights", "setting": "db/db mice; 6 weeks", "result": "decreased"}, {"measurement": "serum ALT levels", "setting": "db/db mice; 6 weeks", "result": "significantly decreased"}, {"measurement": "serum AST levels", "setting": "db/db mice; 6 weeks", "result": "significantly decreased"}, {"measurement": "serum triglyceride levels", "setting": "db/db mice; 6 weeks", "result": "remained similar"}, {"measurement": "body weight", "setting": "db/db mice; Gly-MCA 6 weeks, 10 mg/kg", "result": "reduced body weight"}, {"measurement": "body weight gain", "setting": "HFD-induced obese mice; HFD-induced obese mice, from two weeks of treatment", "result": "reduced body weight gain"}, {"measurement": "absolute fat mass (NMR)", "setting": "HFD-induced obese mice; obese mice, 6 weeks", "result": "significantly decreased"}, {"measurement": "hepatic lipid droplets (liver histology)", "setting": "HFD-induced obese mice; obese mice, 6 weeks", "result": "marked amelioration in hepatic lipid droplets"}, {"measurement": "liver weights", "setting": "HFD-induced obese mice; obese mice, 6 weeks", "result": "reduced"}, {"measurement": "Gly-MCA detected in mouse ileum (stability in intestine)", "setting": "[4]", "result": "stable in the intestine"}]}
